Earlier results on 1 molecule are cited in patent US20070042040A1, “Methods and compositions using gonadotropin hormone releasing hormone” (priority 2003, published 2007).

The conditions of the data set: mouse models.

As for `C[C@]12CC[C@H]3[C@@H](CCC4=C[C@H](O)CC[C@@H]43)[C@@H]1CC[C@@H]2O` [(3α,17β)-estr-4-ene-3,17-diol], the “effect on bone loss” value is reported as “reverse bone loss”.
